PMC11784839, “Monoaminergic neurotransmitters are bimodal effectors of tau aggregation” (Science Advances, 2025)

Target: tau (Homo sapiens, UniProt P10636)
Assay: MCE Phenols Library screening, tau biosensor cell seeding assay (AvZ)
Assay type: cell-based
Conditions: for Z repl 1 / Z Repl 2: Z score; for Z repl 1 / raw data 1: replicate 1; for Z Repl 2 / raw data 2: replicate 2; for AvZ (average z score of seeding, SDs from the mean level of seeding): 10 μM phenol in cell cultures, AD brain homogenate preincubated 16 hours, two biological replicates, positive = catalyzes seeding, negative = inhibits
[1] = average Z score of the two replicates, tau seeding
[2] = average Z score of the two replicates, MCE Phenols Library screen
[3] = average puncta of the two replicates
[4] = average Z score of two replicates, Phenols Library screen

tau, sequence (P10636 623-695 limits assumed): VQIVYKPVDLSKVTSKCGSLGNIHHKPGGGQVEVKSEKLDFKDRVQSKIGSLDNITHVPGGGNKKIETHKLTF

Z repl 1	Z Repl 2	av Z [1]	av puncta (average of raw data 1 and 2)	raw data 1 (puncta)	raw data 2 (puncta)	av Z [2]	av puncta [3]	raw data 1 (raw puncta)	raw data 2 (raw puncta)	av Z [4]	av Z (average Z score of the two replicates, tau biosensor seeding, MCE Phenols Library screen)	Compound	AvZ (average z score of seeding, SDs from the mean level of seeding)
-0.134	0.469	0.168	21257.9	24743.3	17772.6							O=C1C[C@@H](c2ccc(O)cc2)Oc2cc(O[C@@H]3O[C@H](CO)[C@@H](O)[C@H](O)[C@H]3O)cc(O)c21 [Prunin]	
-0.975	-0.298			14642.4	9586.42	-0.636	12114.4					COc1cc(/C=C/c2ccc(O)cc2)cc(OC)c1 [Pterostilbene]	
-0.042	-0.868					-0.455	14673.6	25849	3498.14			O=c1c(-c2ccc(O)cc2)coc2c([C@@H]3O[C@H](CO[C@@H]4OC[C@@H](O)[C@H](O)[C@H]4O)[C@@H](O)[C@H](O)[C@H]3O)c(O)ccc12 [Puerarin 6''-O-Xyloside]	
0.055	-0.946					-0.446	14831.1	27004.8	2657.32			O=C1c2ccccc2C(=O)c2c(O)c(O)cc(O)c21 [Purpurin]	
-0.028	-0.648						15926.2	26009.1	5843.4			O=C(O)c1cccc(O)c1O [Pyrocatechuic acid]	-0.338
-1.577	-1.176		3815.32	7422.91	207.732	-1.376						O=c1c(O)c(-c2ccc(O)c(O)c2)oc2cc(O[C@@H]3O[C@H](CO)[C@@H](O)[C@H](O)[C@H]3O)c(O)c(O)c12 [Quercetagitrin]	
-1.021	-0.252			14091.5	10071.4	-0.637	12081.4					O=C1c2ccccc2C(=O)c2c(O)ccc(O)c21 [Quinizarin]	
-0.355	-0.816			22084.8	4048.5	-0.586	13066.7					Oc1ccc(/C=C/c2cc(O)cc(O)c2)cc1 [Resveratrol]	
-0.491	-0.104					-0.297	16057.3	20455.1	11659.4			O=c1c(O[C@@H]2OC[C@@H](O)[C@H](O)[C@H]2O)c(-c2ccc(O)c(O)c2)oc2cc(O)cc(O)c12 [Reynoutrin]	
-0.386	0.151		18050.7	21720.4	14381.1					-0.117		COc1cc(O)c2c(=O)c(O)c(-c3ccc(O)c(O)c3)oc2c1 [Rhamnetin]	
0.64	0.434	0.537	25718.8	34038.2	17399.4							O=C(O)c1cc(O)c2c(c1)C(=O)c1cccc(O[C@@H]3O[C@H](CO)[C@@H](O)[C@H](O)[C@H]3O)c1C2=O [Rhein 8-Glucoside]	
	-1.086		6714.99	12258.1	1171.9	-1.13						C[C@@H]1O[C@@H](Oc2cc(O)c3c(=O)c(O)c(-c4ccc(O)cc4)oc3c2O)[C@H](O)[C@H](O)[C@H]1O [Rhodionin]	
0.9	-0.094	0.403	24460.4	37158.3	11762.4							C[C@@H]1O[C@@H](O[C@H]2[C@H](Oc3cc(O)c4c(=O)cc(-c5ccc(O)cc5)oc4c3)O[C@H](CO)[C@@H](O)[C@@H]2O)[C@H](O)[C@H](O)[C@H]1O [Rhoifolin]	
-0.499	-0.831			20360.8	3888.25	-0.665	12124.5					O=c1c(O)c(-c2cc(O)c(O)c(O)c2)oc2cc(O)ccc12 [Robinetin]	
0.02	-0.843					-0.411	15180.1	26593.3	3766.89			CC1OC(OCC2OC(Oc3c(-c4ccc(O)cc4)oc4cc(OC5OC(C)C(O)C(O)C5O)cc(O)c4c3=O)C(O)C(O)C2O)C(O)C(O)C1O (centres unmarked) [Robinin]	
0.29	0.728	0.509	25188.7	29833.7	20543.7							COc1c2ccoc2nc2c(O)cccc12 [Robustine]	
-0.371	-0.506					-0.438	14630.2	21894.6	7365.88			COc1ccc(-c2oc3c(CC=C(C)C)c(O)cc(O)c3c(=O)c2O[C@@H]2O[C@@H](C)[C@H](O)[C@@H](O)[C@H]2O[C@@H]2O[C@H](CO)[C@@H](O)[C@H](O)[C@H]2O)cc1 [Sagittatoside A]	
0.003	-0.01		19521.3	26379.5	12663.1					-0.004		COc1cc(O)c2c(c1)O[C@H](c1ccc(O)cc1)CC2=O [Sakuranetin]	
-1.015	-0.017			14164.1	12581.6		13372.8					O=C(O)c1ccccc1O [Salicylic acid, reference compound]	-0.516
-0.397	-0.108					-0.253	16597.3	21578.6	11616.1			COc1cc2c(c(O)c1OC)-c1c(cc(OC)c(OC)c1OC)C[C@@H](C)[C@@H](C)C2 [Schisanhenol]	
-0.619	-1.142		9747.69	18922.2	573.179	-0.88						O=c1cc(-c2ccc(O)cc2)oc2cc(O)c(O)c(O)c12 [Scutellarein]	
1.372	0.426		30068	42819.5	17316.5						0.899	COc1cc(C[C@@H](CO)[C@H](CO)Cc2ccc(O)c(OC)c2)ccc1O [Secoisolariciresinol]	

Compound	Z repl 1	Z Repl 2	av Z [1]	av puncta (average of raw data 1 and 2)	raw data 1 (puncta)	raw data 2 (puncta)	av Z [2]	av puncta [3]	raw data 1 (raw puncta)	raw data 2 (raw puncta)	av Z [4]	av Z (average Z score of the two replicates, tau biosensor seeding, MCE Phenols Library screen)	AvZ (average z score of seeding, SDs from the mean level of seeding)
Oc1cccc(O)c1O [Pyrogallol]	-0.635	-1.067		10051	18727.1	1374.88							-0.851
O=c1c(O)c(-c2ccc(O)c(O)c2)oc2cc(O)c(O)c(O)c12 [Quercetagetin]	-1.958	-1.183		1487.44	2842.17	132.721	-1.57						
O.O.O=c1c(O)c(-c2ccc(O)c(O)c2)oc2cc(O)cc(O)c12 [Quercetin (dihydrate)]	-1.56	-1.162		3988.66	7625.22	352.104	-1.361						
C[C@@H]1O[C@@H](Oc2c(-c3ccc(O)c(O)c3)oc3cc(O)cc(O)c3c2=O)[C@H](O)[C@H](O)[C@H]1O [Quercitrin]	-0.089	-0.329					-0.209	17263.5	25279.8	9247.27			
CC(=O)CCc1ccc(O)cc1 [Raspberry ketone]	0.027	-0.77						15608.2	26674.5	4541.81			-0.371
COc1cc(O)c2c(=O)c(OC)c(-c3ccc(OC)c(OC)c3)oc2c1 [Retusin]	-0.575	-0.37			19450.4	8814.06	-0.472	14132.2					
CC(=O)c1c(O)c(C)c(O)c(Cc2c(O)c3c(c(C(=O)/C=C/c4ccccc4)c2O)OC(C)(C)C=C3)c1O [Rottlerin]	0.296	1.083	0.69	27122.4	29908.4	24336.4							
OCc1ccccc1O [Salicyl alcohol]	-0.325	-0.555						14639.5	22445.8	6833.28			-0.44
O=C(/C=C/c1ccc(O)c(O)c1/C=C/c1ccc(O)c(O)c1)O[C@H](Cc1ccc(O)c(O)c1)C(=O)O [Salvianolic acid A]	-2.14	-1.185		383.467	661.17	105.765	-1.663						
O=C(/C=C/c1ccc(O)c2oc(-c3ccc(O)c(O)c3)cc12)O[C@H](Cc1ccc(O)c(O)c1)C(=O)O [Salvianolic acid C]	-1.645	-1.179		3386.53	6602.17	170.893	-1.412						
O=C(O)[C@H]1O[C@@H](Oc2cc3oc(-c4ccc(O)cc4)cc(=O)c3c(O)c2O)[C@H](O)[C@@H](O)[C@@H]1O [Scutellarin]	-1.927	-0.903		3169.77	3217.73	3121.8	-1.415						
